Measurements from PMC10354055, “An optimized Nurr1 agonist provides disease-modifying effects in Parkinson’s disease models” (Nature Communications, 2023).
pEC50, pIC50: −log10 of the molar value. Where “and” joins values, the source holds several entries; their conditions need not be identical. Equal values may be shown once.

Experiments:
N27-A cells = assay: Autophagolysosome (APL) formation assay, mRFP-GFP-LC3, N27-A cells; assay type: cell-based, rat
Procedure: HeLa and N27-A cells were transfected with tandem mRFP-GFP-LC3 (Addgene) plasmid using Lipofectamine 2000 (Invitrogen) in 24-well plates. After 24 h, cells were incubated in starvation medium (Earle’s Balanced Salt Solution, EBSS; Lonza) containing bafilomycin A1 (BafA1, 10 nM), CQ (20 µM), or 4A7C-301 (1 µM) for 6 h and then fixed with 4% formaldehyde for fluorescence detection. Images were taken using a KEYENCE microscope and red (mRFP) LC3 dots and yellow (mRFP+GFP) LC3 dots were counted from three independent wells for each treatment group. 10 cells were randomly selected and counted from each well and a total of 30 cells were analyzed for each treatment group in both HeLa and N27-A cells.

MN9D cells = assay: Cell viability, MTT reduction, MPP+-treated MN9D cells; assay type: cell-based, mouse
Procedure: Cell viability was determined using 3-(4,5-dimethylthiazol-2-yl)-2,5-diphenyltetrazolium bromide (MTT) as previously described[60]. Briefly, cells were incubated with 5 mg/ml of MTT (Sigma-Aldrich) solution for 3.5 h at 37 °C. MTT formazan crystals were dissolved in 10 times the volume of MTT solvent (4 mM HCl and 0.1% Nonidet P-40 in isopropanol) and the absorbance from the generated blue formazan was measured at 570 nm after 15 min incubation at room temperature. Cell viability was calculated as a percentage (%) of MTT reduction relative to vehicle control.

Nurr1-LBD [1] = molecular target: T1, Nurr1-LBD (Mus musculus, UniProt Q06219); assay: Luciferase reporter assay, Nurr1-LBD, SK-N-BE(2)C cells; assay type: cell-based
T1 construct: transfected with pCMV-fNurr1, pGAL-Nurr1(LBD), pGAL-Nor1(LBD) or pGAL-Nur77(LBD) and reporter construct; expressed in transfected cells; host or cells: SK-N-BE(2)C (human neuroblastoma), N27-A (rat dopaminergic), MN9D (murine dopaminergic)
Source text: Nurr1 transactivity was normalized to β-galactosidase activity.

Nurr1-LBD [2] = molecular target: Nurr1-LBD (Homo sapiens, UniProt P43354); assay: [3H]-CQ radioligand competition binding assay; conditions: Fig. 1h
Procedure: Saturation and competition assays were performed as previously described. For saturation assay, 0.2 µM of Nurr1-LBD and 125-10,000 nM of [^3H]-CQ were incubated in binding buffer (20 mM sodium acetate buffer (pH 5.2)) at 4 °C overnight. […] Assay mixtures were applied to GF/B filters (Brandel Inc.) to capture Nurr1-LBD bounded ligands. […] All graphs and IC50 values were generated using the non-linear regression program in GraphPad Prism version 8.0.2.

[3] = Figure 3b, mRFP-GFP-LC3, individual cells (30 per treatment)

Chain of Nurr1-LBD (Homo sapiens, UniProt P43354) (P43354 360-595 limits assumed, species assumed): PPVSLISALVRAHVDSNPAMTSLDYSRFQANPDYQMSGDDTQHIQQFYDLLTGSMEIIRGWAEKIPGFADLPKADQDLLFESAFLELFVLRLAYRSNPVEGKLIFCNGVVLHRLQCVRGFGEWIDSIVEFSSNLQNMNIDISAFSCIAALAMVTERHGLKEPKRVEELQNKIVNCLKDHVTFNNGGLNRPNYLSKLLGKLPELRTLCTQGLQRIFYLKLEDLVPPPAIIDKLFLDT
T1 sequence (Q06219 360-595 limits assumed): as the sequence (P43354 360-595 limits assumed, species assumed) above

Structure (SMILES): CCN(CC)CCCC(C)Nc1ccnc2cc(Cl)ccc12 (stereo not shown) [CQ, chloroquine]
- LC3 dots/cell, Red LC3 dots (N27-A cells; [3]): 6 dots/cell (4×) and 7 dots/cell (5×) and 11 dots/cell (6×) and 10 dots/cell (2×) and 5 dots/cell (3×) and 15 dots/cell (2×) and 4 dots/cell (2×) and 8 dots/cell (2×) and 13 dots/cell and 17 dots/cell and 9 dots/cell and 2 dots/cell
- LC3 dots/cell, Yellow LC3 dots (N27-A cells; [3]): 25 dots/cell (2×) and 30 dots/cell (6×) and 28 dots/cell (3×) and 20 dots/cell and 17 dots/cell (3×) and 21 dots/cell (4×) and 19 dots/cell and 22 dots/cell (2×) and 23 dots/cell (2×) and 18 dots/cell (2×) and 16 dots/cell and 29 dots/cell (2×) and 31 dots/cell
- autophagy process (in words) (N27-A cells; N27-A, EBSS, CQ 20 µM, 4A7C-301 1 µM): inhibits
- MTT reduction (%) (MN9D cells; Fig. S3c, with MPP+, 1 µM): 53.8043% and 53.2609% and 51.6304%
- MTT reduction (%) (MN9D cells; Fig. S3c, with MPP+, 5 µM): 55.4348% and 56.5217%
- MTT reduction (%) (MN9D cells; Fig. S3c, with MPP+, 10 µM): 57.6087% and 55.9783% and 57.0652%
- MTT reduction (%) (MN9D cells; Fig. S3c, with MPP+, 50 µM): 61.413% and 59.7826%
- MTT reduction (%) (MN9D cells; Fig. S3c, with MPP+, 100 µM): 62.5% and 61.413% and 64.6739%
- MTT reduction (%) (MN9D cells; Fig. S3e, MPP+, Control, CQ 100 µM, 4A7C-301 1 µM): 62.8947% and 66.3158% and 61.0526% and 60.2632%
- MTT reduction (%) (MN9D cells; Fig. S3e, MPP+, Nurr1 KD, CQ 100 µM, 4A7C-301 1 µM): 34.7368% and 29.4737% and 30.7895% and 32.6316%
- MTT reduction (%) (MN9D cells; Fig. S3e, MPP+, Nurr1 OE, CQ 100 µM, 4A7C-301 1 µM): 86.0526% and 90.2105% and 84.3158% and 89.4737%
- pEC50 (Nurr1-LBD [1]; Nurr1-LBD and full-length Nurr1, SK-N-BE(2)C cells, Fig. 1d,e): 4.15 to 4.30
- EC50 (Nurr1-LBD [1]; Nurr1 activation, Supplementary Table 1, values in µM): 50.2 µM
- % of Specific binding (Nurr1-LBD [2]; competitor conc. 0.0001 (µM)): 118.1264% and 84.3678% and 87.5058%
- % of Specific binding (Nurr1-LBD [2]; competitor conc. 0.001 (µM)): 105.0129% and 88.1206% and 97.7170%
- % of Specific binding (Nurr1-LBD [2]; competitor conc. 0.01 (µM)): 86.0400% and 103.1100% and 99.0600%
- % of Specific binding (Nurr1-LBD [2]; competitor conc. 0.1 (µM)): 92.2329% and 89.2060% and 101.4170%
- % of Specific binding (Nurr1-LBD [2]; competitor conc. 1 (µM)): 91.1049% and 87.6783% and 85.5188%
- % of Specific binding (Nurr1-LBD [2]; competitor conc. 10 (µM)): 73.9055% and 78.9516% and 86.9689%
- % of Specific binding (Nurr1-LBD [2]; competitor conc. 100 (µM)): 60.9070% and 71.4020% and 69.8520%
- % of Specific binding (Nurr1-LBD [2]; competitor conc. 1000 (µM)): 61.7083% and 49.9850% and 61.0054%
- % of Specific binding (Nurr1-LBD [2]; competitor conc. 10000 (µM)): 29.9520% and 33.4512% and 36.5796%
- % of Specific binding (Nurr1-LBD [2]; competitor conc. 100000 (µM)): 19.5396% and 23.9835% and 21.7371%
- % of Specific binding (Nurr1-LBD [2]; competitor conc. 1000000 (µM)): 14.1307% and 7.3236% and 10.4343%
- pIC50 (Nurr1-LBD [2]; competition with [3H]-CQ): 5.99 and 6.00
